Here are results for 32 compounds from patent publication US20150246908A1, “KLF5 MODULATORS” (The Scripps Research Institute, priority 2012, published 2015).

One series concerns KLF5 protein. As to the kind of experiment: KLF5 protein levels by Western blot in colon cancer cell lines. It counts as cell-based. The source says: The chemical structure of this compound is described using Formula (I) in which R^1=(E)-2-(3-chlorophenyl)ethenyl, R^2═H, R^3=4-tetrahydro-2H-thiopyran 1,1-dioxide, R^4=Me, X═NH, Y=absent).
(In general: Immunoblotting shows a protein as a band on a membrane.)

The subject of a further series is HCT-116 (colon). Briefly: Tumor cell line potency, HCT-116. It counts as cell-based.
The subject of the next series is 47 kinases. As to the kind of experiment: Off-target activity vs. 47 kinases. Type of series: biochemical.
A further series deals with SW-620 (colon). Briefly: Tumor cell line potency, SW-620. Type of series: cell-based.
Series [1] concerns 67 protein targets of therapeutic and/or toxicological interest (GPCRs, ion channels, enzymes, etc.). As to the kind of experiment: Off-target activity vs. 67 protein targets.
Series [2] can be described thus: Michael acceptor test, incubation with GSH, LCMS. Type of series: physicochemical. To be noted: by LCMS after incubation with 100 μM GSH.
The test system of a further series is DLD-1 cell line. Briefly: DLD-1 cell viability. Type of series: cell-based. The conditions noted are these: for EC50: cell viability, footnote calls it IC50 cell viability.
The subject of series [3] is ovarian cancer line IGROV1. As to the kind of experiment: NCI60 cytotoxicity, IGROV1. It counts as cell-based. To be noted: IGROV1, high KLF5 mRNA level. The source says:
(§1) Moreover, cytotoxicity in general trends with KLF5 levels in the tumor types. […] Only the colon cancer cell line KM12, the ovarian cancer line IGROV1, and the non-small cell lung cancer line NCI-H322M are the NCI60 cell lines high with respect to KLF5 mRNA levels that are ML264-insensitive.

Series [4] is described as follows: Solubility measured at Scripps. Type of series: physicochemical. To be noted: aqueous buffer.
A further series in a line: Stability in PBS. The conditions noted are these: read-out: Stability (t1/2) in PBS. It counts as physicochemical.
For series [5], the system named is colon cancer cell line KM12. As to the kind of experiment: NCI60 cytotoxicity, KM12. Type of series: cell-based. The conditions noted are these: KM12, high KLF5 mRNA level.
From the text: as §1

A further series has as its system HT29 (colon). Briefly: Tumor cell line potency, HT29. It counts as cell-based.
The test system of series [6] is non-small cell lung cancer line NCI-H322M. As to the kind of experiment: NCI60 cytotoxicity, NCI-H322M. It counts as cell-based. To be noted: high KLF5 mRNA level.
From the text: as §1

Another series has as its system human KLF5 promoter. Briefly: KLF5 promoter luciferase assay in DLD-1/pGL4.18KLF5p cell line. The conditions noted are these: measuring luciferase activity. It counts as cell-based.
Where [7] appears, read: Homo sapiens, DLD-1, DlD-1 4.9 cell line.

≈ marks a conversion by molar mass, not a printed value. Entries after “also recorded” stand apart in the source; their conditions may differ. Like-named read-outs stand apart in the source and are kept apart here.

Regarding `CN(C(=O)CNC(=O)/C=C/c1cccc([N+](=O)[O-])c1)C1CCS(=O)(=O)C1` (stereo not shown) [CID46931037], the “effect on KLF5 protein levels” value in the series on KLF5 protein is “lesser effects on KLF5 expression than ML264”.

With `CN(C(=O)COC(=O)/C=C/c1cccc([N+](=O)[O-])c1)C1CCS(=O)(=O)C1` (stereo not shown) [CID 5951923], in the series with KLF5 protein, the “effect on KLF5 protein levels” value is on record as “lesser effects on KLF5 expression than ML264”.

With `CN(C(=O)CNC(=O)/C=C/c1cccc(Cl)c1)C1CCS(=O)(=O)CC1` [Compound 1, (E)-3-(3-chlorophenyl)-N-(2-((1,1-dioxidotetrahydro-2H-thiopyran-4-yl)(methyl)amino)-2-oxoethyl)acrylamide], the “effect on cell type” value with HCT-116 (colon) (HCT116, submicromolar doses) is recorded as “significant effects at submicromolar doses”; with SW-620 (colon) (SW620, submicromolar doses), “significant effects at submicromolar doses”; in the series with HT29 (colon) (HT29, submicromolar doses) it was “significant effects at submicromolar doses”. Also, the IC50 (usually the midpoint of a concentration-inhibition curve) with HCT-116 (colon) (Homo sapiens, HCT-116 (colon)) was 0.56 µM; with SW-620 (colon) (Homo sapiens, SW-620 (colon)), 0.43 µM; with DLD-1 cell line (Homo sapiens, DLD1 (colon), viability) it was 0.029 µM; in the series on HT29 (colon) (Homo sapiens, HT-29, HT29 (colon)) it was 0.13 µM. In addition, the “off-target activity vs. 47 kinases” value with 47 kinases was “inactive”. In addition, in series [1], the inhibition – broadly, the percentage by which the read-out fell short of the control – at 10 μM vs. 67 protein targets is less than 50%. Besides, the Michael acceptor result in series [2] is “Michael acceptor: No”. The “maximal effect on DLD-1 viability” value in the series with DLD-1 cell line was more than 90%. The EC50 (usually the concentration giving half of the maximal effect) in the series with DLD-1 cell line (Homo sapiens) was determined as 0.022 µM. In the series with KLF5 protein (listed as ML264), the “effect on KLF5 protein levels” value is recorded as “significantly reduces KLF5 protein levels; also recorded: lowers KLF5 protein levels”. Moreover, the sensitivity to cytotoxicity result in [3], in series [5] and in [6] was “ML264-insensitive” in each case. Besides, the solubility (usually the concentration that dissolves in the medium under given conditions) in series [4] (PBS, read-out: Solubility in PBS) amounted to 18.7 µM (≈ 7.2 µg/mL); in [4] (assay buffer, read-out: Solubility in assay buffer), 35 µM (≈ 13.5 µg/mL). Besides, in the series “Stability in PBS”, the half-life is more than 48 h.

In the series with human KLF5 promoter (setting [7]), `C[C@@H](NC(=O)/C=C/c1cccc(Cl)c1)C(=O)N(C)C1CCS(=O)(=O)CC1` [Compound 24] registered an IC50 of more than 100 µM.

In the series on human KLF5 promoter (setting [7]), `CN(C(=O)CNC(=O)/C=C/c1cccc(S(=O)(=O)N(C)C)c1)C1CCS(=O)(=O)C1` (stereo not shown) [Compound 25] showed a half-maximal inhibitory concentration (IC50) of more than 100 µM.

In the series on human KLF5 promoter (setting [7]), `O=C(/C=C/c1cccc(Cl)c1)NCC(=O)NC1CCS(=O)(=O)CC1` [Compound 26] had an IC50 of more than 100 µM.

Compound `C[C@@H](NC(=O)/C=C/c1cccc(Cl)c1)C(=O)NC1CCS(=O)(=O)C1` (stereo partly shown) [Compound 27] came in with an IC50 in the series with human KLF5 promoter (setting [7]) of more than 100 µM.

The compound `O=C(/C=C/c1cccc(Cl)c1)NCCC(=O)NC1CCS(=O)(=O)C1` (stereo not shown) [Compound 28] returned an IC50 in the series on human KLF5 promoter (setting [7]) of more than 100 µM.

The compound `CN(C(=O)CCNC(=O)/C=C/c1cccc(Cl)c1)C1CCS(=O)(=O)C1` (stereo not shown) [Compound 29] had a concentration for half-maximal inhibition (IC50) with human KLF5 promoter (setting [7]) of more than 100 µM.

For the compound `C[C@@H](NC(=O)/C=C/c1cccc(Cl)c1)C(=O)N(C)C1CCS(=O)(=O)C1` (stereo partly shown) [Compound 30], the IC50 with human KLF5 promoter (setting [7]) is more than 100 µM.

As for `C[C@@H](NC(=O)/C=C/c1cccc(Cl)c1)C(=O)NC1CCS(=O)(=O)CC1` [Compound 31], in the series on human KLF5 promoter (setting [7]), the concentration for half-maximal inhibition (IC50) is more than 100 µM.

In the series on human KLF5 promoter (setting [7]), `CN(C(=O)CNC(=O)c1cccc2c1OCCO2)C1CCS(=O)(=O)CC1` [Compound 32] displayed an IC50 of more than 100 µM.

Regarding `CN(C(=O)CNC(=O)c1cc2cc(Cl)ccc2[nH]1)C1CCS(=O)(=O)CC1` [Compound 33], the IC50 with human KLF5 promoter (setting [7]) is more than 100 µM.

In the case of `Cc1ccc(C2(C(=O)NCC(=O)N(C)C3CCS(=O)(=O)CC3)CC2)cc1` [Compound 34], the half-inhibitory concentration (IC50) with human KLF5 promoter (setting [7]) is more than 100 µM.

Regarding `CN(C(=O)CNS(=O)(=O)c1cccc2ccccc12)C1CCS(=O)(=O)CC1` [Compound 35], the 50% inhibitory concentration (IC50) in the series on human KLF5 promoter (setting [7]) is more than 100 µM.

As for `CN(C(=O)CNC(=O)Nc1ccc(Br)cc1Br)C1CCS(=O)(=O)CC1` [Compound 36], in the series on human KLF5 promoter (setting [7]), the IC50 is more than 100 µM.

In the series with human KLF5 promoter (setting [7]), `CN(C(=O)CNC(=O)c1cc2ccccc2o1)C1CCS(=O)(=O)CC1` [Compound 38] came in with an IC50 of more than 100 µM.

As for `CN(C(=O)CNC(=O)c1ccc2ccccc2n1)C1CCS(=O)(=O)CC1` [Compound 39], in the series with human KLF5 promoter (setting [7]), the IC50 is more than 100 µM.

In the case of `CN(C(=O)CNC(=O)Cc1ccc2c(c1)OCO2)C1CCS(=O)(=O)CC1` [Compound 40], the 50% inhibitory concentration (IC50) in the series on human KLF5 promoter (setting [7]) was more than 100 µM.

The compound `CN(C(=O)CNC(=O)c1ccnn1-c1ccccc1)C1CCS(=O)(=O)CC1` [Compound 41] returned an IC50 with human KLF5 promoter (setting [7]) of more than 100 µM.

In turn, `CN(C(=O)CNC(=O)COCc1ccccc1)C1CCS(=O)(=O)CC1` [Compound 42] yielded an IC50 with human KLF5 promoter (setting [7]) of more than 100 µM.

As for `COc1ccc(CC(=O)NCC(=O)N(C)C2CCS(=O)(=O)CC2)cc1` [Compound 43], the IC50 with human KLF5 promoter (setting [7]) is more than 100 µM.

Compound `CN(C(=O)CNC(=O)C1CCc2ccccc2O1)C1CCS(=O)(=O)CC1` (stereo not shown) [Compound 44] displayed a 50% inhibitory concentration (IC50) in the series on human KLF5 promoter (setting [7]) of more than 100 µM.

Take `CN(C(=O)CNC(=O)c1coc2ccccc2c1=O)C1CCS(=O)(=O)CC1` [Compound 45]: the IC50 in the series on human KLF5 promoter (setting [7]) was more than 100 µM.

`CN(C(=O)CNC(=O)c1ccc2cc[nH]c2c1)C1CCS(=O)(=O)CC1` [Compound 46]: in the series with human KLF5 promoter (setting [7]), the 50% inhibitory concentration (IC50) was more than 100 µM.

As for `CN(C(=O)CNC(=O)c1ccc2ncsc2c1)C1CCS(=O)(=O)CC1` [Compound 47], the IC50 in the series on human KLF5 promoter (setting [7]) was more than 100 µM.

For the compound `CN(C(=O)CNC(=O)c1cnc2ccc(Cl)cc2c1)C1CCS(=O)(=O)CC1` [Compound 48], the IC50 in the series with human KLF5 promoter (setting [7]) was more than 100 µM.

In the case of `CN(C(=O)CNC(=O)c1ccsc1)C1CCS(=O)(=O)CC1` [Compound 49], the 50% inhibitory concentration (IC50) with human KLF5 promoter (setting [7]) is more than 100 µM.

Take `COc1cccc(CNC(=O)NCC(=O)N(C)C2CCS(=O)(=O)CC2)c1` [Compound 50]: the concentration for half-maximal inhibition (IC50) in the series on human KLF5 promoter (setting [7]) was more than 100 µM.

On to `O=C(/C=C/c1cccc(Cl)c1)NCC(=O)N(C1CC1)C1CCS(=O)(=O)CC1` [Compound 52], for which the IC50 in the series on human KLF5 promoter (DlD-1 4.9 cell line) was more than 100 µM.

In turn, `CN(C(=O)COC(=O)/C=C/c1cccc([N+](=O)[O-])c1)C1CCS(=O)(=O)C1` (stereo not shown) [Compound 53C, reference compound] had an EC50 in the series with DLD-1 cell line (Homo sapiens) of 1.51 µM. The compound also yielded an IC50 in the series on human KLF5 promoter (setting [7]) of 0.27 µM.

In the series with DLD-1 cell line (Homo sapiens), `O=C(/C=C/c1cccc(Cl)c1)NCC(=O)N(C1CC1)C1CCS(=O)(=O)CC1` [Compound 54] returned an EC50 of 0.39 µM. This compound registered an IC50 with human KLF5 promoter (DlD-1 4.9 cell line) of 7.8 µM.
